{
  "source": "paper PMC4754331",
  "about": "“Programming of metabolic effects in C57BL/6JxFVB mice by in utero and lactational exposure to perfluorooctanoic acid” (Archives of Toxicology, 2015)",
  "key": {"F0 C57BL/6J mice": {"test_system": "F0 C57BL/6J mice", "assay": "Perinatal dietary exposure: general toxicity and reproduction parameters (litter size, sex ratio, survival)", "assay_type": "in vivo", "experimental": "PFOA was obtained as sodium perfluoro-n-octanoate (PFOA-Na; CAS No. 335-95-5, purity >99 %) and kindly provided by Wellington Laboratories Inc., Ontario, Canada. PFOA-Na was dissolved in acetone and mixed with the diet (NIH-07, Research Diet Services, Wijk bij Duurstede, The Netherlands). Thereafter, acetone was allowed to evaporate, and this master mixture was serially diluted with a factor 3–3.3 by adding NIH-07, and afterward, the diet was pelleted. In this way, seven diet groups and a control NIH-07 (blank acetone was added) were obtained, aiming at concentrations of 0, 0.017, 0.056, 0.17, 0.56, 1.7, 5.6 and 17 mg/kg PFOA in feed, which corresponded to 0, 3, 10, 30, 100, 300, 1000 and 3000 µg/kg bw based on an average food consumption of 4.5 g per mouse (average body weight of 25 g) per day. PFOA concentrations in test diets were confirmed by isotope dilution liquid chromatography mass spectrometry after extraction with methanol (8402, JT Baker, Deventer the Netherlands) and a cleanup with carbon solid phase extraction (ENVI Carb, 57210-U, Supelco, Zwijndrecht, the Netherlands). Actual PFOA concentrations in the food were 15–30 % lower than the nominal values. The non-purified soy-based NIH-07 was chosen because it was originally designed to optimize gestation, lactation and growth of rodents, and avoiding natural phytoestrogens in the diet may have confounding effects (Ruhlen et al. [2008]). Estrogenic and anti-estrogenic activity for this diet was previously analyzed to be low and absent, respectively (van Esterik et al. [2014]).\nNulliparous female C57BL/6J mice (Charles River, Sulzfeld, Germany) were mated with male FVB mice (GPL, Bilthoven, The Netherlands) to produce hybrid offspring, for which comprehensive background information of phenotype and development is available (Dollé et al. [2011]). Mice were maintained under specific pathogen-free conditions with a target ambient temperature of 21 °C, humidity of 60 % and with a 12/12 h light/dark cycle. F0 males were single-housed in standard Macrolon type II cages and were fed standard laboratory chow (CRM, Tecnilab-BMI, Someren, The Netherlands). To avoid interference from environmental bisphenol A (van Esterik et al. [2014]), F0 females and their pups during lactation were housed in polysulfone cages (Tecnilab-BMI, Someren, The Netherlands), and drinking water was supplied in glass bottles with rubber stoppers. Cages had spruce/fir wood bedding (Lignocel S 8-15; Tecnilab-BMI, Someren, The Netherlands) and aspen wood shavings (Lignocel 9 S) for cage enrichment. Both feed and water were supplied ad libitum.\nAfter an acclimatization period of 1 week, female F0 mice were fed experimental diets explained above starting 2 weeks before mating and continued during mating (1 week), gestation (3 weeks) and lactation (3 weeks). Each dose group had six F0 females, which were mated three by three with two F0 males for each dose group. […] For every dose group, on average 9 mice per sex (range 6–10) were included for follow-up through juvenile and adult stages, selecting pups proportionally from available litters. F1 males were single-housed, and F1 females were housed in pairs from the same litter in standard Macrolon type I cages. Body weight was measured at postnatal day (PND) 4, 7, 14 and 21 and weekly from 5 weeks of age continuing until the end of the study. Food consumption could not be recorded reliably due to high spillage."}, "C57BL/6JxFVB hybrid mice [1]": {"test_system": "C57BL/6JxFVB hybrid mice", "assay": "Tibia composition/function by pQCT", "assay_type": "in vivo", "details": "for Emax: Mus musculus"}, "C57BL/6JxFVB hybrid mice [2]": {"test_system": "C57BL/6JxFVB hybrid mice", "assay": "Body size, organ and fat pad weights at necropsy", "details": "for Emax: Mus musculus"}},
  "note": "Several values for one entry are separate records, joined by “and”; a condition that tells them apart may be missing. Equal entries are not always repeated.",
  "data": [
    {"smiles": "O=C(O)C(F)(F)C(F)(F)C(F)(F)C(F)(F)C(F)(F)C(F)(F)C(F)(F)F", "note": "[PFOA, Perfluorooctanoic acid]", "values": [
      {"measurement": "Sex ratio or survival of the F1 generation", "setting": "F0 C57BL/6J mice; 3–3000 µg/kg bw/day", "value": "No effects"},
      {"measurement": "Litter size: BMD (CED)", "setting": "F0 C57BL/6J mice; F0 dams exposed via diet 2 weeks before mating until PND21", "value": 445, "unit": "µg/kg bw/d"},
      {"measurement": "Litter size: CEDL", "setting": "F0 C57BL/6J mice; Fig. 1, unit from legend", "value": 299.1, "unit": "µg/kg body weight/day"},
      {"measurement": "Litter size: CEDU", "setting": "F0 C57BL/6J mice; Fig. 1, unit from legend", "value": 873, "unit": "µg/kg body weight/day"},
      {"measurement": "General toxicity in dams (survival, body weight, weight gain during gestation)", "setting": "F0 C57BL/6J mice; dietary exposure 3–3000 µg/kg bw/day", "value": "no effect"},
      {"measurement": "Tibia ability to resist torsion: BMDL", "setting": "C57BL/6JxFVB hybrid mice [1]; F1 females, CES 5 %", "value": 917, "unit": "µg/kg bw/d"},
      {"measurement": "Tibia ability to resist torsion: BMDU", "setting": "C57BL/6JxFVB hybrid mice [1]; F1 females, CES 5 %", "value": "10,316 µg/kg bw/d"},
      {"measurement": "Tibia bending strength: BMDL", "setting": "C57BL/6JxFVB hybrid mice [1]; F1 females, CES 5 %", "value": 888, "unit": "µg/kg bw/d"},
      {"measurement": "Tibia bending strength: BMDU", "setting": "C57BL/6JxFVB hybrid mice [1]; F1 females, CES 5 %", "value": 3371, "unit": "µg/kg bw/d"},
      {"measurement": "Tibia cortical density: BMDL", "setting": "C57BL/6JxFVB hybrid mice [1]; F1 females, CES 5 %", "value": 2866, "unit": "µg/kg bw/d"},
      {"measurement": "Tibia cortical density: BMDU", "setting": "C57BL/6JxFVB hybrid mice [1]; F1 females, CES 5 %", "value": 6949, "unit": "µg/kg bw/d"},
      {"measurement": "Tibia trabecular area: BMDL", "setting": "C57BL/6JxFVB hybrid mice [1]; F1 females, CES 5 %", "value": 914, "unit": "µg/kg bw/d"},
      {"measurement": "Tibia trabecular area: BMDU", "setting": "C57BL/6JxFVB hybrid mice [1]; F1 females, CES 5 %", "value": 3037, "unit": "µg/kg bw/d"},
      {"measurement": "Tibia cortical density: BMDL", "setting": "C57BL/6JxFVB hybrid mice [1]; F1 males, CES 5 %", "value": 2635, "unit": "µg/kg bw/d"},
      {"measurement": "Tibia cortical density: BMDU", "setting": "C57BL/6JxFVB hybrid mice [1]; F1 males, CES 5 %", "value": "27,520 µg/kg bw/d"},
      {"measurement": "Emax", "setting": "C57BL/6JxFVB hybrid mice [1]; F1 females, read-out: Tibia ability to resist torsion: max effect size", "value": -8.3, "unit": "%"},
      {"measurement": "Emax", "setting": "C57BL/6JxFVB hybrid mice [1]; F1 females, read-out: Tibia bending strength: max effect size", "value": -9.9, "unit": "%"},
      {"measurement": "Emax", "setting": "C57BL/6JxFVB hybrid mice [1]; F1 females, read-out: Tibia cortical density: max effect size", "value": -3.7, "unit": "%"},
      {"measurement": "Emax", "setting": "C57BL/6JxFVB hybrid mice [1]; F1 females, read-out: Tibia trabecular area: max effect size", "value": -10, "unit": "%"},
      {"measurement": "Emax", "setting": "C57BL/6JxFVB hybrid mice [1]; F1 males, read-out: Tibia cortical density: max effect size", "value": -3.4, "unit": "%"},
      {"measurement": "Other relevant effects of PFOA", "setting": "C57BL/6JxFVB hybrid mice [2]; C57BL/6JxFVB, 3-10-30-100-300-1000-3000 µg/kg bw/d, diet, 2w pre-mating-PND21, this study", "value": "F: ↓ fat pad weights; ↓ serum cholesterol; ↓ serum triglycerides"},
      {"measurement": "Perirenal fat pad weight: BMDL corrected for measured levels of PFOA in the feed (15–30 % lower than nominal)", "setting": "C57BL/6JxFVB hybrid mice [2]; F1 females", "value": "46–55 µg/kg bw/d and 46 µg/kg bw/d"},
      {"measurement": "Femur length: BMDL", "setting": "C57BL/6JxFVB hybrid mice [2]; F1 females, CES 5 %", "value": 2423, "unit": "µg/kg bw/d"},
      {"measurement": "Femur length: BMDU", "setting": "C57BL/6JxFVB hybrid mice [2]; F1 females, CES 5 %", "value": 6999, "unit": "µg/kg bw/d"},
      {"measurement": "Femur weight: BMDL", "setting": "C57BL/6JxFVB hybrid mice [2]; F1 females, CES 5 %", "value": 989, "unit": "µg/kg bw/d"},
      {"measurement": "Femur weight: BMDU", "setting": "C57BL/6JxFVB hybrid mice [2]; F1 females, CES 5 %", "value": 5060, "unit": "µg/kg bw/d"},
      {"measurement": "Perirenal fat pad weight: BMDL", "setting": "C57BL/6JxFVB hybrid mice [2]; F1 females, CES 5 %", "value": 65, "unit": "µg/kg bw/d"},
      {"measurement": "Perirenal fat pad weight: BMDU", "setting": "C57BL/6JxFVB hybrid mice [2]; F1 females, CES 5 %", "value": 362, "unit": "µg/kg bw/d"},
      {"measurement": "Quadriceps femoris muscle weight: BMDL", "setting": "C57BL/6JxFVB hybrid mice [2]; F1 females, CES 5 %", "value": 432, "unit": "µg/kg bw/d"},
      {"measurement": "Quadriceps femoris muscle weight: BMDU", "setting": "C57BL/6JxFVB hybrid mice [2]; F1 females, CES 5 %", "value": 1356, "unit": "µg/kg bw/d"},
      {"measurement": "Emax", "setting": "C57BL/6JxFVB hybrid mice [2]; read-out: Femur length: max effect size, F1 females", "value": -4.2, "unit": "%"},
      {"measurement": "Emax", "setting": "C57BL/6JxFVB hybrid mice [2]; read-out: Femur weight: max effect size, F1 females", "value": -8.6, "unit": "%"},
      {"measurement": "Emax", "setting": "C57BL/6JxFVB hybrid mice [2]; read-out: Liver weight: max effect size, F1 males", "value": 16, "unit": "%"},
      {"measurement": "Emax", "setting": "C57BL/6JxFVB hybrid mice [2]; read-out: Perigonadal fat pad weight: max effect size, F1 females", "value": -56, "unit": "%"},
      {"measurement": "Emax", "setting": "C57BL/6JxFVB hybrid mice [2]; read-out: Perirenal fat pad weight: max effect size, F1 females", "value": -57, "unit": "%"},
      {"measurement": "Emax", "setting": "C57BL/6JxFVB hybrid mice [2]; read-out: Quadriceps femoris muscle weight: max effect size, F1 females", "value": -19, "unit": "%"},
      {"measurement": "Emax", "setting": "C57BL/6JxFVB hybrid mice [2]; read-out: Tibia length: max effect size, F1 females, exponential modeling only", "value": -5, "unit": "%"},
      {"measurement": "Emax", "setting": "C57BL/6JxFVB hybrid mice [2]; read-out: Tibia length: max effect size, F1 males", "value": -1.6, "unit": "%"},
      {"measurement": "Developmental BMDL of 46 µg/kg bw/d: times lower than the BMDL10 of 300 µg/kg bw/d used for the TDI", "setting": "C57BL/6JxFVB hybrid mice [2]; mouse, in vivo", "value": 6.5, "unit": "times"}
    ]}
  ]
}
